Data from patent US11400089B2, “Multikinase inhibitors and uses in reproductive and digestive tract fibrosis” (AIVIVA BIOPHARMA, INC., priority 2017, dated 2022).

Experiments:
[1] = test system: testosterone and phenylephrine induced benign prostate hyperplasia; assay: testosterone and phenylephrine induced benign prostate hyperplasia in rats (Example 3); assay type: in vivo, Male Wistar rats; conditions: for inhibition of cellular proliferation in testosterone/phenylephrine induced benign prostate hyperplasia model: 1% intra-prostate days 1 and 18, rat; for epithelial (glandular) hyperplasia score, dorsolateral prostate, representative image / epithelial (glandular) hyperplasia score, ventral prostate, representative image: TE+PE induced rats, intra-prostate 0.4 ml days 1 and 18, day 32, induced vehicle score=4; for epithelial (glandular) hyperplasia score, dorsolateral prostate, representative image: grade 0 (not present) to 5 (severe), FIG. 4; for epithelial (glandular) hyperplasia score, ventral prostate, representative image: grade 0 to 5, FIG. 5
Description: This study was conducted to determine the effects of multikinase inhibitors and vehicle on testosterone and phenylephrine induced benign prostate hyperplasia in rats. Male Wistar rats were induced with testosterone (2 mg/kg) plus phenylephrine (5 mg/kg) administered daily by subcutaneous injection on days 5 through 32. Vehicle or test compounds (all 1% w/v), nintedanib, sunitinib or lenvatinib and doxazosin mesylate, were administered by intra-prostate injection (0.4 ml) in dorsolateral and ventral lobes on days 1 and 18. Animals were euthanized on day 32.
At necropsy, the ventral and dorsolateral lobes of the prostate were separated and then cut into halves. The left halves were fixed in 10% neutral buffered formalin, sectioned, and stained with Hematoxylin and Eosin (H&E). Histological changes in these sections were scored. Epithelial hyperplasia was recognized as an increase in epithelial cells within normal-appearing gland profiles, primarily reflected by stratification of epithelial cells and increased presence of epithelial tufting and papillary projections. A severity grade of 0 (not present) through 5 (severe) was assigned to each sample.

[2] = test system: suture induced ocular fibrosis; assay: suture induced ocular fibrosis model in rabbits (Example 4); assay type: in vivo; conditions: for areas of neovascularization on the corneal surface: 0.3% topical 35 μL/eye three times daily for 10 days, FIG. 8; for fibroplasia and/or collagen density (histological staining) / alpha SMA staining (immunohistochemical analysis): 0.3% topical three times daily for 10 days, FIG. 9; for fibroplasia and/or collagen density (histological staining): Day 11; for alpha SMA staining (immunohistochemical analysis): relative to vehicle
Description: A study was conducted to determine the potential beneficial effects of topical administration of test compounds and vehicle in a suture induced ocular fibrosis model in rabbits. Sutures were placed intrastromally, under a microscope, in the cornea of rabbits. In each eye, one 9.0 silk suture was placed, in a vertical position, temporal to the center of the cornea and a second suture was placed nasal to the corneal center. Each suture had two stromal incursions approximately 2 mm from the limbus. Test compounds having a certain spectrum of multikinase inhibition activities or vehicle were topically instilled (35 μL/eye) in the eyes three times daily for 10 days following the day of surgery. The treatment groups include vehicle, axitinib (0.3%), nintedanib (0.3%), pirfenidone (1%), riociguat (0.3%), sorafenib (0.3%) and lenvatinib (0.3%). Six left eyes were used per treatment group.
During the in-life phase, gross ocular observations of very slight to moderate conjunctival congestion and swelling were similar among groups, including the vehicle control. The animals were sacrificed on Day 11 and eyes enucleated and dissected for histopathological evaluation.

[3] = test system: full-thickness dermal wounds; assay: full-thickness dermal wounds in rabbit ear, histopathology (Example 5); assay type: in vivo, New Zealand White rabbits; design: average total score of test wounds lower than untreated/control wounds by / Neovascularization (histopathology score, treated mean) / Fibrosis/Collagen (histopathology score, treated mean) / Reepithelialization (histopathology score, treated mean) / Total Score (histopathology, treated mean): scale not given here; conditions: for Fibrosis/Collagen (histopathology score, treated mean) / Neovascularization (histopathology score, treated mean) / Reepithelialization (histopathology score, treated mean) / Total Score (histopathology, treated mean): 1% intradermal dosing days 15 and 29, Day 42; for average total score of test wounds lower than untreated/control wounds by: difference treated vs control
Description: Test compounds were examined in full-thickness dermal wounds in rabbits. Seven male New Zealand White rabbits, ranging in body weight from 3.03 to 3.40 kg were used in this study. Four wounds were placed on the ventral surface of both ears using an 8 mm skin punch biopsy. Axitinib (1.0%), nintedanib (1.0%), lenvatinib (1.0%), sorafenib (1.0%) and sunitinib (1.0%) were administered by intradermal or intralesional injection on days 15 and 29 following surgery. Animals were euthanized on Day 42 and trauma sites were harvested and divided in half. One half was preserved in formalin for histological examination and the other half frozen for TGF beta analysis. Tissue H&E staining was evaluated semi-quantitatively for inflammation and neovascularization. Tissue fibrosis and collagen organization were evaluated by Mason's trichrome staining. Scores for four intradermal sites receiving test articles were averaged for each rabbit. Most scar tissues were composed of neovascularization, fibroblast hyperplasia, collagen disorganization and re-epithelialization.

[4] = test system: TGF beta mRNA expression; assay: TGF beta mRNA expression in rabbit dermal wound model (Example 5); assay type: in vivo, New Zealand White rabbits; conditions: 1% intradermal days 15 and 29; Day 42; FIG. 10
Description: Test compounds were examined in full-thickness dermal wounds in rabbits. Seven male New Zealand White rabbits, ranging in body weight from 3.03 to 3.40 kg were used in this study. Four wounds were placed on the ventral surface of both ears using an 8 mm skin punch biopsy. Axitinib (1.0%), nintedanib (1.0%), lenvatinib (1.0%), sorafenib (1.0%) and sunitinib (1.0%) were administered by intradermal or intralesional injection on days 15 and 29 following surgery. Animals were euthanized on Day 42 and trauma sites were harvested and divided in half. One half was preserved in formalin for histological examination and the other half frozen for TGF beta analysis.
TGF beta mRNA expression in treated trauma samples was compared to expression in untreated samples. In general, TGF beta expression in treated samples was lower relative to untreated trauma samples.

[5] = test system: TGF beta 1 protein levels; assay: TGF beta 1 protein level (ELISA) in pig linear incision wound model (Example 6); assay type: in vivo, Gottingen minipigs; conditions: 16 mg per wound site intradermal; Days 4, 7 and 9; FIG. 11
Description: Full-thickness linear incision wounds were created in Gottingen minipigs on Day 1. 10 wounds approximately 3 cm in length and spaced at least 5 cm apart were created on the dorsal surface of the animals, perpendicular to the spine. Test agents included nintedanib (2%), lenvatinib (2%), sorafenib (1%), axitinib (2%) and vehicle control. Test agents were administered by intradermal injection immediately after wound creation. The dose of nintedanib, lenvatinib, sorafenib, or axitinib was 16 mg per wound site. Three minipigs were dosed in a similar manner. One minipig was sacrificed on Day 4, one on Day 7, and one on Day 9.
At the time of sacrifice, two dermal punch biopsies (4 mm) from each side of the wound sites were collected. Two biopsies were flash frozen in liquid nitrogen and stored at −80° C. prior to processing by protein extraction and ELISA (enzyme-linked immunosorbent assay) analysis. TGF beta protein levels were measured on Days 4, 7 and 9.

[6] = test system: LL37-induced inflammation; assay: intradermal LL37 injection-induced inflammation model in mice, histopathology (Example 7); assay type: in vivo; conditions: single intradermal injection 1.6 mg, FIG. 13
Description: (§1) In our study, mice were injected subcutaneously with 40 μL of LL-37 (3.3 mg/mL) to induce inflammatory reactions. Immediately following the LL-37 injection, axitinib, nintedanib, and lenvatinib were individually administered as a single intradermal injection (1.6 mg). LL-37 injection was repeated every 12 hours for a total of 4 injections. Endotoxin-free water and dexamethasone (3 mg/kg by intraperitoneal injection, twice), respectively, were used as negative and positive control groups.
At 48 hours after the initial LL-37 injection, the dorsal skin was photographed, and the severity of skin lesions were scored for redness and measured for areas of involvement.
The tissue samples were analyzed for inflammation characteristics. Histopathology endpoints included inflammation, and CD4+ and CD8+ T-lymphocyte immunostaining. For inflammation scores, tissues were examined histologically and scored for inflammatory cell infiltrate.

[7] = test system: TGFb-1 mRNA expression; assay: TGFb1 mRNA expression in LL37-induced mice (Example 7); assay type: in vivo; conditions: single intradermal injection 1.6 mg, FIG. 12
Description: as §1
The TGFb1 mRNA expression in mice induced with LL37 and treated with lenvatinib was 79% of that challenged with LL37 alone (i.e., without treatment).

[8] = 1% intradermal, rabbit ear wound

Row | Structure (SMILES) | inhibition of cellular proliferation in testosterone/phenylephrine induced benign prostate hyperplasia model [1] | epithelial (glandular) hyperplasia score, dorsolateral prostate, representative image [1] | epithelial (glandular) hyperplasia score, ventral prostate, representative image [1] | areas of neovascularization on the corneal surface [2] | fibroplasia and/or collagen density (histological staining) [2] | alpha SMA staining (immunohistochemical analysis) [2] | Fibrosis/Collagen (histopathology score, treated mean) ([3]; rabbit ear wound) | Neovascularization (histopathology score, treated mean) ([3]; rabbit ear wound) | Reepithelialization (histopathology score, treated mean) ([3]; rabbit ear wound) | Total Score (histopathology, treated mean) ([3]; rabbit ear wound) | average total score of test wounds lower than untreated/control wounds by ([3]; 1% intradermal) | angiogenesis and fibrosis at treated trauma sites (histopathology summary) [3, 8] | fibrosis compared with control wound sites [3, 8] | mean folds of TGF beta mRNA expression vs untreated trauma samples [4] | TGF beta 1 protein levels in wound [5] | inflammation scores (inflammatory cell infiltrate) [6] | TGFb1 mRNA expression relative to LL37 alone (without treatment) [7] [%] | TGFb-1 mRNA expression among all treatment groups [7] | neovascularization compared with untreated wounds [3, 8] | scar formation overall compared with control sites [3, 8]
1 | COc1cc2nccc(Oc3ccc(NC(=O)NC4CC4)c(Cl)c3)c2cc1C(N)=O [lenvatinib] | effective inhibitors of cellular proliferation | 2 | 3 | efficacious in reducing the areas of neovascularization | significantly reduced fibroplasia and/or collagen density | significantly reduced alpha SMA staining | 2.5 | 2 | 0 | 4.5 | 0.5 | decreased angiogenesis and fibrosis | decreased fibrosis compared to control wound sites | lower than the expression level in untreated trauma samples | time-dependent inhibition of TGF beta 1 protein levels | prominent reductions in the scores of inflammation | 79 | lowest TGFb-1 mRNA expression |  | 
2 | COC(=O)c1ccc2c(c1)NC(=O)/C2=C(\Nc1ccc(N(C)C(=O)CN2CCN(C)CC2)cc1)c1ccccc1 [nintedanib] | effective inhibitors of cellular proliferation | 3 | 3 | efficacious in reducing the areas of neovascularization | significantly reduced fibroplasia and/or collagen density | significantly reduced alpha SMA staining | 3 | 1 | 0.5 | 4.5 | 1.5 | decreased angiogenesis and fibrosis | about the same fibrosis as untreated wounds | lower than the expression level in untreated trauma samples | time-dependent inhibition of TGF beta 1 protein levels | prominent reductions in the scores of inflammation |  |  | much less neovascularization | less scar formation compared with the control sites
